Laboratory results taken from patent publication US20130190289A1, “COMPOUNDS AND METHODS FOR THE TREATMENT OR PREVENTION OF FLAVIVIRUS INFECTIONS” (priority 2010, published 2013).
Where two headings read alike, the source gives them in different places.

What was measured:
[1] = test system: HCV replicon (genotype 1b) in Huh7 cell line ET; assay: microbe, parasite or virus in culture; assay type: cell-based, HCV genotype 1b; settings: Hepatitis C virus
[2] = test system: HCV sub-genomic replicon of genotype 1a in replicon cell line W11.8; assay: microbe, parasite or virus in culture; assay type: cell-based, HCV genotype 1a; settings: Hepatitis C virus
Source text: This procedure below describes the HCV replicon assay using a Huh7 hepatoma cell line harboring a highly cell culture-adapted replicon (genotype 1b) (hereafter named cell line ET). The ET cells contained the highly cell culture-adapted replicon I389luc-ubi-neo/NS3-3′/5.1 construct that carried, in addition to the neomycin gene, an integrated copy to the firefly luciferase gene (Krieger, N; Lohmann, V; Bartenschlager, R. Enhancement of hepatitis C virus RNA replication by cell culture-adaptive mutations. J. Virol. 2001, 75, 4614-4624). A replicon cell line W11.8, containing the 1a genotype of HCV was also used. These two cell lines (genotype 1b and 1a) allowed measurement of RNA replication and translation by measuring luciferase activity (against genotype 1b) or by measuring the NS5A level using the ELISA assay (against genotype 1a). […] ET cell lines were maintained in cultures at a sub-confluent level (<85%). The culture media used for cell passaging consisted of DMEM (Gibco BRL Laboratories, Mississauga, ON, Canada) supplemented with 10% fetal bovine serum with 1% penicilin/streptomycin, 1% glutamine, 1% sodium pyruvate, 1% non-essential amino acids, and 180 µg/ml of G418 final concentration.
Replicon cell lines W11.8 containing a sub-genomic replicon of genotype 1a was used for the HCV Replicon Cell-Based detection using the ELISA. The RNA replication in presence of different drug concentrations was indirectly measured in these cell lines by the level of NS5A protein content upon drug treatment for four days. The NS5A is a non-structural protein of HCV and is used as marker of HCV replication in this assay.
For the treatment of the cells with the testing drug, Culture medium was removed from the 175 cm^2 T-flask by aspiration. Cell monolayer was rinsed with 10-20 mL of PBS 1× at room temperature. PBS was removed by aspiration. Cells were trypsinized using 3 mL of Trypsin (0.25%)/EDTA (0.1%) solution. Flasks were incubated at 37° C. (incubator) for 7 minutes. Complete medium (9 mL) without G418 is then added. Cell clumps were disrupted by pipetting up and down several times.
The cell suspension was then transferred to a 50 mL Falcon polypropylene tube. Cells were then counted several times using the haemocytometer. Cells were diluted at 50,000 cells/mL with complete DMEM without G418, then transferred into a sterile reservoir. Using a multichannel pipet, approximately 5,000 viable cells (100 μL) were plated per well in a white opaque 96-well microtiter plate. After an incubation period of 2-4 hours at 37° C. in a 5% CO2 incubator, compounds were added at various concentrations.
Drugs were resuspended in DMSO at a stock concentration of 100 mM or 10 mM. […] Then, drugs were diluted at twice the final concentration in the same medium (without G418) described earlier, in sterile 96-deep well plate and according to a particular template (see Appendix). One volume (100 μL) of each drug dilution was then added to each well that contains cells.
Sixteen wells were used as control (0% inhibition) without drug. Eight wells were used as background control (100% inhibition) containing 2 μM (final concentration) of the reference compound. […] Values from 100% inhibited wells were averaged and used as the background value. Cells are further incubated for 4 days at 37° C. in a 5% CO2 incubator.
For the measurement of NS5A protein content, following the incubation time of four days, the media was throwed into an appropriate waste container by inverting the plate. Any residual liquid was removed by tapping gently on absorbent paper several times. The plates were then washed once with 150 μL of PBS per well, and then incubated for 5 minutes at room temperature on a shaker (500 rpm).

[3] = [3H]Thymidine incorporation assay (cell toxicity); settings: human
[4] = Huh-7, 96 h, read-out: HCV-Replicon (Luci-ET)-1b_IC50
[5] = W11.8, 96 h, read-out: HCV-Replicon-ELISA-1a IC50
[6] = Huh-7, read-out: HCV-Replicon-(Luci-ET) 1b_IC50
[7] = W11.8, read-out: HCV-Replicon-ELISA-1a IC50

SMILES | IC50 [1, 4] | IC50 [2, 5] | CC50 at 72 h [3] | IC50 [1, 6] | IC50 [2, 7]
CC(C)N1CCCC[C@H](N(c2cc(C#CC(C)(C)C)sc2C(=O)O)C(=O)[C@H]2CC[C@H](C)CC2)C1=O [Compound 146, (S)-5-(3,3-Dimethylbut-1-ynyl)-3-((trans)-4-methyl-N-(1-isopropyl-2-oxoazepan-3-yl)cyclohexanecarboxamido)thiophene-2-carboxylic acid] | < 100 nM | < 100 nM | 10000 to 100000 nM |  | 
CC(C)CC#Cc1cc(N(CC(=O)N2CCOCC2)C(=O)[C@H]2CC[C@H](C)CC2)c(C(=O)O)s1 [Compound 130, 3-[(trans-4-methylcyclohexanecarbonyl)-(2-morpholino-2-oxo-ethyl)amino]-5-(4-methylpent-1-ynyl)thiophene-2-carboxylic acid] | 100 to 1000 nM | 100 to 1000 nM | > 100000 nM |  | 
C[C@@H](C(=O)N(C)C)N(c1cc(C#CC(C)(C)C)sc1C(=O)O)C(=O)[C@H]1CC[C@H](C)CC1 [Compound 3, 5-(3,3-Dimethyl-but-1-ynyl)-3-[((S)-1-dimethylcarbamoyl-ethyl)-(trans-4-methyl-cyclohexanecarbonyl)-amino]-thiophene-2-carboxylic acid] |  |  | > 100000 nM | < 100 nM | < 100 nM
CC(C)(C)C#Cc1cc(N(C(=O)[C@H]2CC[C@H](C)CC2)[C@H]2CCN(CCO)C2=O)c(C(=O)O)s1 [Compound 139, 5-(3,3-Dimethylbut-1-ynyl)-3-[[(3S)-1-(2-hydroxyethyl)-2-oxo-pyrrolidin-3-yl]-(trans-4-methylcyclohexanecarbonyl)amino]thiophene-2-carboxylic acid] | < 100 nM | < 100 nM | > 100000 nM |  | 
CC[C@@H](C(=O)N1CCOCC1)N(C(=O)c1ccc(Cl)cc1Cl)c1cc(C#CC(C)(C)C)sc1C(=O)O [Compound 143, (S)-5-(3,3-Dimethylbut-1-ynyl)-3-[(2,4-dichlorobenzoyl)-[1-(morpholine-4-carbonyl)propyl]amino]-thiophene-2-carboxylic acid] | < 100 nM | < 100 nM | 10000 to 100000 nM |  | 
CC(C)(C)C#Cc1cc(N(C(=O)[C@H]2CC[C@H](C)CC2)[C@H]2CCN([C@H]3CCOC3)C2=O)c(C(=O)O)s1 [Compound 156, 5-(3,3-Dimethylbut-1-ynyl)-3-[(trans-4-methylcyclohexanecaronyl)-[(3S)-2-oxo-1-[(3S)-tetrahydrofuran-3-yl]pyrrolidin-3-yl]amino]thiophene-2-carboxylic acid] | < 100 nM | 4 nM |  |  | 
C[C@@H](CN(c1cc(C#CC(C)(C)C)sc1C(=O)O)C(=O)[C@H]1CC[C@H](C)CC1)C(=O)N1CCOCC1 [Compound 108, 5-(3,3-Dimethylbut-1-ynyl)-3-[(trans-4-methylcyclohexanecarbonyl)-[(2S)-2-methyl-3-morpholino-3-oxo-propyl]amino]thiophene-2-carboxylic acid] |  |  | > 100000 nM | < 100 nM | < 100 nM
CN(C)C(=O)CN(c1cc(C#CC(C)(C)C)sc1C(=O)O)C(=O)[C@H]1CC[C@H](C)CC1 [Compound 5, 5-(3,3-Dimethyl-but-1-ynyl)-3-[dimethylcarbamoylmethyl-(trans-4-methyl-cyclohexanecarbonyl)-amino]-thiophene-2-carboxylic acid] |  |  | > 100000 nM | < 100 nM | < 100 nM
CC(C)N1CCC[C@H](N(c2cc(C#CC(C)(C)C)sc2C(=O)O)C(=O)[C@H]2CC[C@H](C)CC2)C1=O [Compound 149, (S)-5-(3,3-Dimethylbut-1-ynyl)-3-((trans)-4-methyl-N-(1-isopropyl-2-oxopiperidin-3-yl)cyclohexanecarboxamido)thiophene-2-carboxylic acid] | < 100 nM | < 100 nM | 10000 to 100000 nM |  | 
C[C@@H](C(=O)N1CC[C@@H](O)C1)N(c1cc(C#CC(C)(C)C)sc1C(=O)O)C(=O)[C@H]1CC[C@H](C)CC1 [Compound 32, 5-(3,3-Dimethylbut-1-ynyl)-3-[[(1S)-2-[(3R)-3-hydroxypyrrolidin-1-yl]-1-methyl-2-oxo-ethyl]-(trans-4-methylcyclohexanecarbonyl)amino]thiophene-2-carboxylic acid] |  |  | > 100000 nM | < 100 nM | 
CC(C)NC(=O)CN(c1cc(C#CC(C)(C)C)sc1C(=O)O)C(=O)[C@H]1CC[C@H](C)CC1 [Compound 73, 5-(3,3-dimethylbut-1-ynyl)-3-[[2-(isopropylamino)-2-oxo-ethyl]-(trans-4-methylcyclohexanecarbonyl)amino]thiophene-2-carboxylic acid] |  |  | > 100000 nM | < 100 nM | 
CC1(C#Cc2cc(N(CC(=O)N3CCOCC3)C(=O)[C@H]3CC[C@H](C)CC3)c(C(=O)O)s2)CC1 [Compound 144, 3-[(trans-4-methylcyclohexanecarbonyl)-(2-morpholino-2-oxo-ethyl)amino]-5-[2-(1-methylcyclopropyl)ethynyl]thiophene-2-carboxylic acid] | < 100 nM |  | > 100000 nM |  | 
COCCN1CCC[C@H](N(c2cc(C#CC(C)(C)C)sc2C(=O)O)C(=O)[C@H]2CC[C@H](C)CC2)C1=O [Compound 150, (S)-5-(3,3-Dimethylbut-1-ynyl)-3-((trans)-4-methyl-N-(1-(2-methoxyethyl)-2-oxopiperidin-3-yl)cyclohexanecarboxamido)thiophene-2-carboxylic acid] | < 100 nM |  | > 100000 nM |  | 
CC[C@@H](C(=O)N(C)CC1CCOC1)N(c1cc(C#CC(C)(C)C)sc1C(=O)O)C(=O)[C@H]1CC[C@H](C)CC1 (stereo partly drawn) [Compound 80, 5-(3,3-Dimethylbut-1-ynyl)-3-[(trans-4-methylcyclohexanecarbonyl)-[(1S)-1-[methyl(tetrahydrofuran-3-ylmethyl)carbamoyl]propyl]amino]thiophene-2-carboxylic acid] |  |  | > 100000 nM | < 100 nM | 
C[C@@H]1CN(C(=O)[C@H](C)N(c2cc(C#CC(C)(C)C)sc2C(=O)O)C(=O)[C@H]2CC[C@H](C)CC2)C[C@H](C)O1 [Compound 48, 5-(3,3-Dimethylbut-1-ynyl)-3-[[(1S)-2-[(2R,6S)-2,6-dimethylmorpholin-4-yl]-1-methyl-2-oxo-ethyl]-(trans-4-methylcyclohexanecarbonyl)amino]thiophene-2-carboxylic acid] |  |  | 10000 to 100000 nM | < 100 nM | 
C[C@@H](CC(=O)N(C)C)N(c1cc(C#CC(C)(C)C)sc1C(=O)O)C(=O)[C@H]1CC[C@H](C)CC1 [Compound 96, 3-((trans)-N—((S)-4-(dimethylamino)-4-oxobutan-2-yl)-4-methylcyclohexanecarboxamido)-5-(3,3-dimethylbut-1-yn-1-yl)thiophene-2-carboxylic acid] |  |  | 10000 to 100000 nM | < 100 nM | 
C[C@@H](C(=O)N1CCOC(C)(C)C1)N(c1cc(C#CC(C)(C)C)sc1C(=O)O)C(=O)[C@H]1CC[C@H](C)CC1 [Compound 50, 5-(3,3-Dimethylbut-1-ynyl)-3-[[(1S)-2-(2,2-dimethylmorpholin-4-yl)-1-methyl-2-oxo-ethyl]-(trans-4-methylcyclohexanecarbonyl)amino]thiophene-2-carboxylic acid] |  |  | > 100000 nM | < 100 nM | 
C[C@@H](C(=O)N1CCCC(O)C1)N(c1cc(C#CC(C)(C)C)sc1C(=O)O)C(=O)[C@H]1CC[C@H](C)CC1 (stereo partly drawn) [Compound 54, 5-(3,3-Dimethylbut-1-ynyl)-3-[[(1S)-2-(3-hydroxy-1-piperidyl)-1-methyl-2-oxo-ethyl]-(trans-4-methylcyclohexanecarbonyl)amino]thiophene-2-carboxylic acid] |  |  | > 100000 nM | < 100 nM | 
